# From ChEMBL document CHEMBL4334518, “Discovery and Pharmacological Studies of 4-Hydroxyphenyl-Derived Phosphonium Salts Active in a Mouse Model of Visceral Leishmaniasis” (J Med Chem, 2019)
# Active and inactive are the calls of the source. No cut-off for these calls is given here.
# Key:
# [1] = Drug uptake in Leishmania infantum LEM 3049 isolate promastigotes at 20 uM after 10 mins at 28 degC by fluorimetric assay; assay type: ADME
# Leishmania infantum [2] = assay: Antileishmanial activity against Leishmania infantum amastigotes infected in human THP1 cells after 96 hrs by prolong-gold antifade-reagent/DAPI staining based assay; assay type: functional, organism-based; conditions: THP-1, 96 h
# THP-1 = assay: Cytotoxicity against human THP1 cells assessed as reduction in cell viability after 72 hrs by MTT assay; assay type: cell-based; conditions: THP-1, 72 h
# [3] = Drug uptake in ATP depleted Leishmania infantum LEM 3049 isolate promastigotes at 20 uM after 10 mins in presence of 2-deoxy-D-glucose by fluorimetric assay; assay type: ADME
# [4] = Selectivity index, ratio of EC50 for cytotoxicity against human THP1 cells to EC50 for antileishmanial activity against Leishmania infantum amastigotes infected in human THP1 cells; assay type: toxicity, cell-based; conditions: read-out: Ratio EC50
# [5] = Drug uptake in Leishmania infantum LEM 3049 isolate promastigotes at 20 uM after 10 mins at 4 degC by fluorimetric assay; assay type: ADME
# Leishmania infantum [6] = assay: Antileishmanial activity against Leishmania infantum promastigote after 72 hrs by MTT assay; assay type: functional, organism-based
# Leishmania infantum [7] = assay: Induction of mitochondrial membrane potential loss in Leishmania infantum LEM 3049 isolate promastigotes at 0.02 uM after 30 mins by JC-1 dye based flow cytometric analysis relative to control; assay type: functional
# [8] = Half life in human liver microsomes at 10 to 20 uM measured for 120 mins in presence of UDPGA by RP-HPLC analysis; assay type: ADME, Microsome
# [9] = Plasma concentration in BALB/c mouse infected with Leishmania infantum LEM 3049 isolate promastigotes at 1.5 mg/kg, po administered for 4 days and measured 2 days post last dose by HPLC analysis; conditions: in vivo, 48 h, BLD = below limit of detection
# [10] = Solubility of the compound in water; assay type: physicochemical; conditions: buffer
# Leishmania infantum [11] = assay: Antileishmanial activity against Leishmania infantum LEM 3049 isolate promastigotes assessed as decrease in ATP level at 0.02 uM after 120 mins by CellTiter-Glo luminescence assay relative to control; assay type: functional; design: scale not given: the % may be the effect or the level left
# Leishmania infantum [12] = assay: Induction of ROS generation in Leishmania infantum LEM 3049 isolate promastigotes at 1 uM after 2 hrs by H2DCFDA staining based flow cytometric analysis relative to control; assay type: functional
# Leishmania infantum [13] = assay: Induction of mitochondrial membrane potential loss in Leishmania infantum LEM 3049 isolate promastigotes at 1 uM after 24 hrs by JC-1 dye based flow cytometric analysis relative to control; assay type: functional
# [14] = Tmax in BALB/c mouse at 20 mg/kg, po measured for up to 72 hrs by HPLC analysis; assay type: ADME, organism-based; conditions: in vivo
# Leishmania donovani [15] = assay: Potency index, ratio of amphotericin B EC50 to test compound EC50 for antileishmanial activity against Leishmania […] amastigote infected in THP1 cells; assay type: functional
# Leishmania infantum [16] = assay: Antileishmanial activity against Leishmania infantum LEM 3049 isolate intracellular amastigotes infected in human THP1 cells after 96 hrs by prolong-gold antifade-reagent/DAPI staining based assay; assay type: functional, organism-based; conditions: THP-1, 96 h, read-out: EC50
# Leishmania infantum [17] = assay: Antileishmanial activity against Leishmania infantum LEM 3049 isolate promastigote after 72 hrs by MTT assay; assay type: functional, organism-based
# Leishmania infantum [18] = assay: Antileishmanial activity against Leishmania infantum LEM 3049 isolate promastigotes assessed as decrease in ATP level at 0.02 to 1 uM after 30 mins by CellTiter-Glo luminescence assay relative to control; assay type: functional; design: scale not given: the % may be the effect or the level left
# [19] = Half life in CD-1 mouse liver microsomes at 5 to 10 uM measured for 120 mins in presence of NADPH by RP-HPLC analysis; assay type: ADME, Microsome
# [20] = Thermodynamic solubility of the compound in 5% gamma-cyclodextrin in water (w/w) colloidal suspension; assay type: physicochemical; conditions: read-out: Therm_solubility
# Leishmania infantum [21] = assay: Antileishmanial activity against Leishmania infantum LEM 3049 isolate promastigotes assessed as decrease in ATP level at 0.1 uM after 120 mins by CellTiter-Glo luminescence assay relative to control; assay type: functional; design: scale not given: the % may be the effect or the level left
# [22] = Drug concentration in BALB/c mouse spleen infected with Leishmania infantum LEM 3049 isolate promastigotes at 1.5 mg/kg, po administered for 4 days and measured 2 days post last dose by HPLC analysis; conditions: in vivo, 48 h, BLD = below limit of detection
# [23] = Selectivity index, ratio of EC50 for cytotoxicity against human THP1 cells to EC50 for antileishmanial activity against Leishmania donovani MHOM/ET/67/HU3 amastigotes infected in human THP1 cells; assay type: toxicity, cell-based; conditions: read-out: Ratio EC50
# Leishmania infantum [24] = assay: Antileishmanial activity against MIL resistant Leishmania infantum LEM 5159 isolate intracellular amastigotes infected in human THP1 cells after 96 hrs by prolong-gold antifade-reagent/DAPI staining based assay; assay type: functional, organism-based; conditions: THP-1, 96 h
# [25] = Half life in human liver microsomes at 5 to 10 uM measured for 120 mins in presence of NADPH by RP-HPLC analysis; assay type: ADME, Microsome
# Leishmania infantum [26] = assay: Antileishmanial activity against Leishmania infantum LEM 3049 isolate promastigotes infected in BALB/c mouse assessed as reduction in parasite burden in liver at 1.5 mg/kg, po administered for 4 days and measured 2 days post last dose by light microscopic method relative to control; design: scale not given: the % may be the effect or the level left
# [27] = Primary phase half life in BALB/c mouse at 20 mg/kg, po measured for < 6 hrs by HPLC analysis; assay type: ADME, organism-based; conditions: in vivo, read-out: alphat1/2 (converted)
# [28] = Plasma concentration in BALB/c mouse infected with Leishmania infantum LEM 3049 isolate promastigote at 1.5 mg/kg, po for 4 days by HPLC analysis
# Leishmania infantum [29] = assay: Antileishmanial activity against Sb 3 resistant Leishmania infantum LEM 3329 isolate intracellular amastigotes infected in human THP1 cells after 96 hrs by prolong-gold antifade-reagent/DAPI staining based assay; assay type: functional, organism-based; conditions: THP-1, 96 h
# [30] = Half life in CD-1 mouse liver microsomes at 10 to 20 uM measured for 120 mins in presence of UDPGA by RP-HPLC analysis; assay type: ADME, Microsome
# Leishmania infantum [31] = assay: Induction of plasma membrane permeabilization in Leishmania infantum LEM 3049 isolate promastigotes 0.02 to 1 uM incubated for 2 hrs by SYTOX Green based flow cytometric analysis; assay type: functional, organism-based
# [32] = Drug concentration in BALB/c mouse liver infected with Leishmania infantum LEM 3049 isolate promastigotes at 1.5 mg/kg, po administered for 4 days and measured 2 days post last dose by HPLC analysis; conditions: in vivo, 48 h, BLD = below limit of detection
# [33] = Acute toxicity in BALB/c mouse at 20 mg/kg, po; assay type: organism-based; conditions: in vivo
# Leishmania infantum [34] = assay: Antileishmanial activity against MIL/paromomycin resistant Leishmania infantum LEM 2126 isolate intracellular amastigotes infected in human THP1 cells after 96 hrs by prolong-gold antifade-reagent/DAPI staining based assay; assay type: functional, organism-based; conditions: THP-1, 96 h
# Leishmania infantum [35] = assay: Antileishmanial activity against Leishmania infantum LEM 3049 isolate promastigotes assessed as decrease in ATP level at 1 uM after 120 mins by CellTiter-Glo luminescence assay relative to control; assay type: functional; design: scale not given: the % may be the effect or the level left
# [36] = Metabolic stability in human liver S9 fraction at 10 to 20 uM measured for 120 mins in presence of UDPGA by RP-HPLC analysis; assay type: ADME, subcellular; conditions: s9, 2 h
# Leishmania infantum [37] = assay: Antileishmanial activity against MIL resistant Leishmania infantum LEM 5159 isolate promastigote after 72 hrs by MTT assay; assay type: functional, organism-based
# Leishmania infantum [38] = assay: Antileishmanial activity against MIL/paromomycin resistant Leishmania infantum LEM 2126 isolate promastigote after 72 hrs by MTT assay; assay type: functional, organism-based
# Leishmania infantum [39] = assay: Antileishmanial activity against Sb 3 resistant Leishmania infantum LEM 3329 isolate promastigote after 72 hrs by MTT assay; assay type: functional, organism-based
# [40] = Metabolic stability in human liver S9 fraction at 5 to 10 uM measured for 120 mins in presence of NADPH by RP-HPLC analysis; assay type: ADME, subcellular; conditions: s9, 2 h
# Leishmania donovani [41] = assay: Antileishmanial activity against Leishmania donovani MHOM/ET/67/HU3 promastigote after 72 hrs by MTT assay; assay type: functional, organism-based; conditions: MHOM/ET/67/HU3, 72 h
# [42] = Cmax in BALB/c mouse at 20 mg/kg, po measured for up to 72 hrs by HPLC analysis; assay type: ADME, organism-based; design: dose 20 mg/kg, route oral; conditions: in vivo
# Leishmania infantum [43] = assay: Induction of apoptosis in Leishmania infantum LEM 3049 isolate promastigotes assessed as DNA fragmentation at 0.02 to 5 uM after 4 hrs by TUNEL assay; assay type: functional, organism-based
# Leishmania infantum [44] = assay: Induction of plasma membrane depolarization in Leishmania infantum LEM 3049 isolate promastigotes incubated for 2 hrs by DiBAC4(3) probe based flow cytometric analysis; assay type: functional, organism-based
# Leishmania donovani [45] = assay: Antileishmanial activity against Leishmania donovani MHOM/ET/67/HU3 intracellular amastigotes infected in human THP1 cells after 96 hrs by prolong-gold antifade-reagent/DAPI staining based assay; assay type: functional, organism-based; conditions: MHOM/ET/67/HU3, THP-1, 96 h
# [46] = Apparent terminal half life in BALB/c mouse at 20 mg/kg, po measured for 6 to 72 hrs by HPLC analysis; assay type: ADME, organism-based; conditions: in vivo, read-out: betat1/2(app) (converted)
# Leishmania infantum [47] = assay: Antileishmanial activity against Leishmania infantum LEM 3049 isolate promastigotes infected in BALB/c mouse assessed as reduction in parasite burden in spleen at 1.5 mg/kg, po administered for 4 days and measured 2 days post last dose by light microscopic method relative to control; design: scale not given: the % may be the effect or the level left
smiles,measurement,setting,value
O=C(CCCCCCCCCCCCCCC[P+](c1cccc2ccccc12)(c1cccc2ccccc12)c1cccc2ccccc12)c1ccc(O)cc1O.[Br-],Drug uptake,[1],Active
same,EC50,Leishmania infantum [2],1250 nM
same,EC50,THP-1,12800 nM
same,Drug uptake,[3],Active
same,selectivity ratio,[4],10.3
same,Drug uptake,[5],Active
same,EC50,Leishmania infantum [6],3540 nM
O=C(CCCCCCCCCCCCCCC[P+](c1ccccc1)(c1ccccc1)c1ccccc1)c1ccc(O)cc1O.[Br-],Activity,Leishmania infantum [7],86%
same,half-life at up to 20 µM,[8],> 2 h
same,Cp,[9],Bld
same,solubility,[10],Insoluble
same,Activity,Leishmania infantum [11],91%
same,fold change (FC),Leishmania infantum [12],8
same,Activity,Leishmania infantum [13],97%
same,Tmax,[14],1 h
same,Ratio EC50,Leishmania donovani [15],2
same,EC50,Leishmania infantum [16],120 nM
same,EC50,Leishmania infantum [17],80 nM
same,Activity,Leishmania infantum [18],50 - 74%
same,half-life,[19],< 0.5 h
same,EC50,THP-1,2810 nM
same,solubility thermodynamic,[20],520 µg/mL
same,Activity,Leishmania infantum [21],89%
same,Drug uptake,[22],Bld
same,selectivity ratio,[23],31.2
same,EC50,Leishmania infantum [24],140 nM
same,half-life,[25],> 2 h
same,Activity,Leishmania infantum [26],95.3%
same,half-life,[27],1 h
same,concentration at 96 h,[28],> 0.09 µM
same,EC50,Leishmania infantum [29],150 nM
same,half-life at up to 20 µM,[30],< 0.5 h
same,Activity,Leishmania infantum [31],inactive
same,Drug uptake,[32],Bld
same,Activity,[33],Toxic
same,EC50,Leishmania infantum [34],140 nM
same,Activity,Leishmania infantum [35],87%
same,Stability,[36],Stable
same,EC50,Leishmania infantum [37],110 nM
same,EC50,Leishmania infantum [38],120 nM
same,EC50,Leishmania infantum [39],100 nM
same,Stability,[40],Stable
same,EC50,Leishmania donovani [41],70 nM
same,Cmax,[42],182 µM
same,Activity,Leishmania infantum [43],inactive
same,Activity,Leishmania infantum [44],Dose-dependent effect
same,EC50,Leishmania donovani [45],90 nM
same,half-life,[46],23 h
same,Activity,Leishmania infantum [47],98.9%
